Values quoted from earlier work, collected in patent US20230210830A1 (ALKEM LABORATORIES LIMITED, priority 2022, published 2023).

Assays:
[1] = Strongest Basic
[2] = humans
[3] = system: aneurysmal subarachnoid hemorrhage (aSAH); conditions: oral administration; patients after aSAH; Ehrlich et al. 2019

## COCCOC(=O)C1=C(C)NC(C)=C(C(=O)OC(C)C)C1c1cccc([N+](=O)[O-])c1 (stereo not drawn) [nimodipine, isopropyl 2-methoxyethyl 1,4-dihydro-2,6-dimethyl-4-(m-nitrophenyl)-3,5-pyridinedicarboxylate]
[1]
  pKa: 5.41
ethanol, polyethylene glycol 400, dimethyl sulfoxide (DMSO), and chloroform
  solubility in organic solvents: soluble
water
  solubility in water: insoluble
[2]
  bioavailability: 12%
[2]; after oral administration
  t1/2: 1.5 h
[3]
  clinical outcome: improved clinical outcome
